# Key:
# BTK = BTK (Homo sapiens (Human), UniProt Q06187); assay: Detection of BTK degradation in Mino cells; format: cell-based
# Description: The Mino human mantle cell lymphoma cell line was purchased from ATCC and cultured under conditions of RPMI-1640+15% FBS+1% double antibody in a 37° C., 5% CO2 incubator. Cells were plated in a 6-well plate, with 5×10^5 cells/well. After plating, compounds at different concentrations were added and cultured in a 37° C., 5% CO2 incubator for 48 h. After culturing, the cells were collected. The cells were lysed on ice for 15 minutes by adding RIPA lysis buffer (Beyotime, Cat. P0013B) and centrifuged at 12000 rpm at 4° C. for 10 minutes. The protein sample of the supernatant was collected, subjected to protein quantification by using a BCA kit (Beyotime, Cat. P0009) and then diluted to 0.25 mg/mL. The expressions of BTK (CST, Cat. 85475) and the internal reference β-actin (CST, Cat. 37005) were detected using a fully automated western blot quantitative analyzer (Proteinsimple) with a kit (Protein simple, Cat. SM-W004). The expression level of BTK relative to the internal reference was calculated by using Compass software, and the DC50 value was calculated by using Origen9.2 software according to formula (1). Specifically, the BTKadministration denoted the expression level of BTK in administration groups at different doses, and the BTKvehicle denoted the expression level of BTK in the vehicle control group.
# BTK %=BTKadministration/BTKvehicle×100 formula (1)
# BTK protein = BTK protein (Mus musculus (Mouse), UniProt P35991); assay: Detection of BTK protein degradation in spleen of mice; format: in vivo; conditions: female ICR mice, intragastric, 3 consecutive days; conclusion in words
# Sequence of BTK protein (P35991 whole entry): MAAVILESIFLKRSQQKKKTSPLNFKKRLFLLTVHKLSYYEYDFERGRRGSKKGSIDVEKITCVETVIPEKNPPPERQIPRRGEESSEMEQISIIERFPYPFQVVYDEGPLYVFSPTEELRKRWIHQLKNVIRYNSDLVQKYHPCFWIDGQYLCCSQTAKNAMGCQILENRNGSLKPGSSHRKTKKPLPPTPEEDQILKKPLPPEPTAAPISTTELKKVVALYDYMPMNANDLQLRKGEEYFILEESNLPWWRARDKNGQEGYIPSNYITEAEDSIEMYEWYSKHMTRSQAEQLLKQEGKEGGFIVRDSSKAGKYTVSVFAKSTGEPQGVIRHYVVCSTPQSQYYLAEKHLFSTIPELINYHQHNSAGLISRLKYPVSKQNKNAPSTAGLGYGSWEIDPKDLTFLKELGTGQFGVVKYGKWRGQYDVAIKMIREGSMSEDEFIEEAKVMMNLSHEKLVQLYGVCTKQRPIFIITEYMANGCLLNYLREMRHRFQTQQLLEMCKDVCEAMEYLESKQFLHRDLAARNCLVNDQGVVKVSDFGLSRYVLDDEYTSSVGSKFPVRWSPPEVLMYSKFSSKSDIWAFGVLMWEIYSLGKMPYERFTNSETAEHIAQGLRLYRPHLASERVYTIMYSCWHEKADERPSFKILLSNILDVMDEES
# Description: Female ICR mice, 6-8 weeks old, were purchased from Beijing Vital River Laboratory Animal Technology Co., Ltd., and the experiment was started after 3 days of adaptation. After 3 consecutive days of intragastric administration of compounds at different doses, the spleens of mice were taken. The spleen cells were collected, lysed on ice for 15 min by adding RIPA lysis buffer (Beyotime, Cat. P0013B), and then centrifuged at 12000 rpm at 4° C. for 10 min. The protein sample of the supernatant was collected, subjected to protein quantification by using a BCA kit (Beyotime, Cat. P0009) and then diluted to 0.25 mg/mL. The expressions of BTK (CST, Cat. 8547S) and the internal reference R-actin (CST, Cat. 3700S) were detected by using a fully automated western blot quantitative analyzer (Proteinsimple). The expression level of BTK relative to the internal reference was calculated by using Compass software, and the DD50 value was calculated by using Origen9.2 software according to formula (2). Specifically, the BTKadministration denoted the expression level of BTK in administration groups at different doses, and the BTKvehicle denoted the expression level of BTK in the vehicle control group.
# BTK %=BTKadministration/BTKvehicle×100% formula (2)
# Sequence of BTK (Q06187 whole entry): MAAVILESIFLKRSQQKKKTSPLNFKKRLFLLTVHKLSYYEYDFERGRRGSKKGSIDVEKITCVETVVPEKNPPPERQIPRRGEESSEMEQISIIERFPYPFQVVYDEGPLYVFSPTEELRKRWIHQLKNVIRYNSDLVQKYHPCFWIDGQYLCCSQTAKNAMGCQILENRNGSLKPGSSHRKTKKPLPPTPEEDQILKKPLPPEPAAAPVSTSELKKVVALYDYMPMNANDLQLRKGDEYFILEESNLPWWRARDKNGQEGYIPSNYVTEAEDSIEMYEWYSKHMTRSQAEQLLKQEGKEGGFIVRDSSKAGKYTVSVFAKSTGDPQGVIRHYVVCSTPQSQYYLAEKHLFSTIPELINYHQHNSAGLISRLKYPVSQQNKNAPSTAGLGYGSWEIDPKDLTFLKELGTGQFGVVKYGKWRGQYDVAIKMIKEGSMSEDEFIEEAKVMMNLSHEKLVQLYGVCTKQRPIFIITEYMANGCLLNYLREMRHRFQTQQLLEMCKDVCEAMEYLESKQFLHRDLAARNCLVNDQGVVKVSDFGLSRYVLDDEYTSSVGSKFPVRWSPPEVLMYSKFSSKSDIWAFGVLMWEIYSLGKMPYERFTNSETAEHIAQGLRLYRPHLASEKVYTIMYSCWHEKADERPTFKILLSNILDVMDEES
structure (smiles),measurement,setting,value
"Nc1ncnc2c1c(-c1ccc(Oc3ccccc3)cc1)nn2C1CCN(C2CCN(C3CN(c4ccc5c(c4)C(=O)N(C4CCC(=O)NC4=O)C5=O)C3)CC2)CC1 (stereo not drawn) [Compound 2, 5-(3-(4-(4-amino-3-(4-phenoxyphenyl)-1H-pyrazolo[3,4-d]pyrimidin-1-yl)-[1,4′-bipiperidin]-1′-yl)azetidin-1-yl)-2-(2,6-dioxopiperidin-3-yl)isoindoline-1,3-dione]",DC50,"BTK; Mino cells, 48 h, western blot, BTK relative to β-actin",0.0229 µM
same,degradation effect on BTK in Mino cells,BTK; conclusion in words,significant degradation effect
same,degradation effect on BTK proteins in spleens of mice,BTK protein,significant degradation effect

# Source: patent US20240018147A1, “SALT OF COMPOUND FOR DEGRADING BTK, CRYSTAL FORM THEREOF, AND USE THEREOF IN MEDICINE” (HAISCO PHARMACEUTICALS PTE. LTD., priority 2020, published 2024)
